Results reported in BigSolDB 2.1.

O=C1c2cccc(Cl)c2C(=O)N1c1ccccc1
solubility (mole fraction)
Settings	in 1,4-dioxane	in acetic acid	in acetone	in acetonitrile	in ethyl acetate	in isobutanol	in isopropanol	in methanol	in n-butanol	in n-propanol
288.15 K	0.00825	0.000923	0.00298	0.00196	0.0021	0.000116	7.27e-05	0.000147	0.000183	0.000162
290.65 K	0.00898	0.00104	0.00324	0.00216	0.00232	0.000128	8.36e-05	0.000171	0.000204	0.000187
293.15 K	0.00979	0.00116	0.00358	0.00236	0.00255	0.000149	9.82e-05	0.000194	0.000234	0.000226
295.65 K	0.0107	0.0013	0.00392	0.00258	0.00284	0.000167	0.000111	0.00022	0.000266	0.000266
298.15 K	0.0115	0.00145	0.00429	0.0028	0.00315	0.000189	0.000132	0.000249	0.000308	0.000311
300.65 K	0.0125	0.00159	0.00468	0.00305	0.00347	0.000221	0.000151	0.00028	0.000345	0.000353
303.15 K	0.0134	0.00175	0.00505	0.00332	0.0038	0.000258	0.000178	0.000308	0.000388	0.000411
305.65 K	0.0145	0.00189	0.00551	0.00361	0.00412	0.000296	0.000208	0.000339	0.000432	0.000468
308.15 K	0.0158	0.00206	0.00597	0.00397	0.00448	0.000341	0.000237	0.000381	0.000478	0.000527
310.65 K	0.0171	0.00225	0.00654	0.0043	0.00484	0.000392	0.000268	0.000428	0.000535	0.000593
313.15 K	0.0188	0.00248	0.00718	0.0047	0.00525	0.000457	0.000305	0.000478	0.000597	0.000668
315.65 K	0.0204	0.00273	0.00779	0.00514	0.00568	0.000526	0.000345	0.000533	0.000665	0.000747
318.15 K	0.0224	0.00299	0.00851	0.00553	0.00617	0.000599	0.000387	0.00059	0.00074	0.00083
320.65 K	0.0243	0.00328	0.00919	0.00603	0.00669	0.000679	0.000445	0.000656	0.000821	0.000917
323.15 K	0.0266	0.00364	0.00995	0.00655	0.00734	0.000762	0.00053	0.000745	0.000908	0.00103
